The source made the active and inactive calls. The calls are words filed in the database; no cut-off is given here. Square brackets hold non-standard residues; d marks the D form. Peptide text beside a SMILES is read from it. * marks the point of attachment. Leu(ol) = CC(C)C[C@H](N)CO; dIva = CC[C@@](C)(N)C(=O)O; Octanoyl = CCCCCCCC(=O)*; Aib = CC(C)(N)C(=O)O
Key:
[1] = test system: SK-OV-3; experiment: Antiproliferative activity against human SK-OV-3 cells assessed as reduction in cell viability incubated for 24 hrs by MTT assay; assay type: functional, cell-based; details: SK-OV-3, 24 h
[2] = test system: Candida albicans; experiment: Antifungal activity against Candida albicans; assay type: functional, organism-based
[3] = test system: DU-145; experiment: Antiproliferative activity against human DU-145 cells assessed as reduction in cell viability incubated for 24 hrs by MTT assay; assay type: functional, cell-based; details: DU-145, 24 h
[4] = test system: MDA-MB-231; experiment: Antiproliferative activity against human MDA-MB-231 cells assessed as reduction in cell viability incubated for 24 hrs by MTT assay; assay type: functional, cell-based; details: MDA-MB-231, 24 h
[5] = test system: HCT-116; experiment: Antiproliferative activity against human HCT-116 cells assessed as reduction in cell viability incubated for 24 hrs by MTT assay; assay type: functional, cell-based; details: HCT-116, 24 h
[6] = test system: Fusarium oxysporum; experiment: Antifungal activity against Fusarium oxysporum KCTC 16654; assay type: functional, organism-based
[7] = test system: SNU-449; experiment: Antiproliferative activity against human SNU-449 cells assessed as reduction in cell viability incubated for 24 hrs by MTT assay; assay type: functional, cell-based; details: SNU-449, 24 h
[8] = test system: [Candida] auris; experiment: Antifungal activity against Candida auris; assay type: functional, organism-based; details: Candidozyma auris

Row | SMILES | IC50 [1] [µM] | IC50 [3] [µM] | IC50 [4] [µM] | IC50 [5] [µM] | IC50 [7] [µM] | Activity [2] | Activity [6] | Activity [8]
1 | CCCCCCCC(=O)NCC(=O)N[C@@H](C)C(=O)N[C@H](C(=O)N[C@](C)(CC)C(=O)N[C@@H](C)C(=O)N[C@@H](CC(C)C)C(=O)N[C@H](CO)CC(C)C)C(C)C | 47 | 15.1 | 11.5 | 8.9 | 39 | inactive | inactive | inactive
2 | CCCCCCCC(=O)NCC(=O)N[C@@H](C)C(=O)N[C@@H](CC(C)C)C(=O)N[C@](C)(CC)C(=O)N[C@@H](C)C(=O)N[C@@H](CC(C)C)C(=O)N[C@H](CO)CC(C)C | 50.3 | 18.2 | 18.5 | 37.9 | 222 | inactive | inactive | inactive
3 | CC[C@H](C)[C@H](NC(=O)C(C)(C)NC(=O)C(C)(C)NC(=O)[C@H](CO)NC(=O)C(C)(C)NC(C)=O)C(=O)N[C@@H](CCC(N)=O)C(=O)NC(C)(C)C(=O)NC(C)(C)C(=O)NC(C)(C)C(=O)N[C@@H](CO)C(=O)N[C@@H](CC(C)C)C(=O)NC(C)(C)C(=O)N1CCC[C@H]1C(=O)N[C@H](C(=O)NC(C)(C)C(=O)NC(C)(C)C(=O)N[C@@H](CCC(N)=O)C(=O)N[C@@H](CCC(N)=O)C(=O)N[C@H](CO)CC(C)C)C(C)C (Ac-[Aib]S[Aib][Aib]IQ[Aib][Aib][Aib]SL[Aib]PV[Aib][Aib]QQ[Leu(ol)]) | 2.4 | 2 | 1 | 4.3 | 11.3 | inactive | inactive | inactive
4 | CCCCCCCC(=O)NCC(=O)N[C@@H](C)C(=O)N[C@@H](CC(C)C)C(=O)NC(C)(C)C(=O)N[C@@H](C)C(=O)N[C@H](C(=O)N[C@H](CO)CC(C)C)[C@@H](C)CC (Octanoyl-GAL[Aib]AI[Leu(ol)]) | 18.7 | 25.4 | 17.6 | 27.4 | > 150 | inactive | inactive | inactive
5 | CCCCCCCC(=O)NCC(=O)N[C@@H](C)C(=O)N[C@@H](CC(C)C)C(=O)NC(C)(C)C(=O)N[C@@H](C)C(=O)N[C@@H](CC(C)C)C(=O)N[C@H](CO)CC(C)C (Octanoyl-GAL[Aib]AL[Leu(ol)]) | 12.5 | 13 | 7.3 | 12 | 17.3 | inactive | inactive | inactive
6 | CCCCCCCC(=O)NCC(=O)N[C@@H](C)C(=O)N[C@@H](CC(C)C)C(=O)N[C@](C)(CC)C(=O)N[C@@H](C)C(=O)N[C@H](C(=O)N[C@H](CO)CC(C)C)[C@@H](C)CC (Octanoyl-GAL[dIva]AI[Leu(ol)]) | 6.3 | 4.5 | 4.5 | 8 | 8.8 | inactive | inactive | inactive
7 | CCCCCCCC(=O)NCC(=O)N[C@@H](C)C(=O)N[C@H](C(=O)NC(C)(C)C(=O)N[C@@H](C)C(=O)N[C@@H](CC(C)C)C(=O)N[C@H](CO)CC(C)C)C(C)C (Octanoyl-GAV[Aib]AL[Leu(ol)]) | 60.7 | 31.8 | 25.7 | > 150 | > 150 | inactive | inactive | inactive
8 | COc1cccc2c1C(=O)c1c(O)c3c(c(O)c1C2=O)C[C@@](O)(C(=O)CO)C[C@@H]3O[C@H]1C[C@H](N)[C@H](O)[C@H](C)O1 [DOXORUBICIN] | 88.4 | 91.2 | – | 73.6 | 71.4 | inactive | inactive | inactive

More lines, main results first:

Row | IC50 [1] [µM] | IC50 [3] [µM] | IC50 [4] [µM] | IC50 [5] [µM] | IC50 [7] [µM] | SMILES | Activity [2] | Activity [6] | Activity [8]
9 | 3.8 | 2.1 | 2.3 | 3.2 | 5.7 | CC[C@H](C)[C@H](NC(=O)C(C)(C)NC(=O)C(C)(C)NC(=O)[C@H](C)NC(=O)C(C)(C)NC(C)=O)C(=O)N[C@@H](CCC(N)=O)C(=O)NC(C)(C)C(=O)NC(C)(C)C(=O)NC(C)(C)C(=O)N[C@@H](CO)C(=O)N[C@@H](CC(C)C)C(=O)NC(C)(C)C(=O)N1CCC[C@H]1C(=O)N[C@H](C(=O)NC(C)(C)C(=O)NC(C)(C)C(=O)N[C@@H](CCC(N)=O)C(=O)N[C@@H](CCC(N)=O)C(=O)N[C@H](CO)CC(C)C)C(C)C (Ac-[Aib]A[Aib][Aib]IQ[Aib][Aib][Aib]SL[Aib]PV[Aib][Aib]QQ[Leu(ol)]) | inactive | inactive | inactive
10 | 26.7 | 12.2 | 8.7 | 9 | > 150 | CC[C@H](C)[C@H](NC(=O)C(C)(C)NC(=O)C(C)(C)NC(=O)[C@H](C)NC(=O)C(C)(C)NC(C)=O)C(=O)N[C@@H](CCC(N)=O)C(=O)NC(C)(C)C(=O)NC(C)(C)C(=O)NC(C)(C)C(=O)N[C@@H](CO)C(=O)N[C@H](C(=O)NC(C)(C)C(=O)N1CCC[C@H]1C(=O)N[C@H](C(=O)NC(C)(C)C(=O)NC(C)(C)C(=O)N[C@@H](CCC(N)=O)C(=O)N[C@@H](CCC(N)=O)C(=O)N[C@H](CO)CC(C)C)C(C)C)C(C)C (Ac-[Aib]A[Aib][Aib]IQ[Aib][Aib][Aib]SV[Aib]PV[Aib][Aib]QQ[Leu(ol)]) | inactive | inactive | inactive
11 | 4.1 | 4.4 | 2.3 | 3.7 | 10.4 | CC(=O)NC(C)(C)C(=O)N[C@@H](C)C(=O)NC(C)(C)C(=O)NC(C)(C)C(=O)N[C@@H](CC(C)C)C(=O)N[C@@H](CCC(N)=O)C(=O)NC(C)(C)C(=O)NC(C)(C)C(=O)NC(C)(C)C(=O)N[C@@H](CO)C(=O)N[C@@H](CC(C)C)C(=O)NC(C)(C)C(=O)N1CCC[C@H]1C(=O)N[C@H](C(=O)NC(C)(C)C(=O)NC(C)(C)C(=O)N[C@@H](CCC(N)=O)C(=O)N[C@@H](CCC(N)=O)C(=O)N[C@H](CO)CC(C)C)C(C)C (Ac-[Aib]A[Aib][Aib]LQ[Aib][Aib][Aib]SL[Aib]PV[Aib][Aib]QQ[Leu(ol)]) | inactive | inactive | inactive
12 | 11.9 | 12 | 7.2 | 8.7 | 30.8 | CC(=O)NC(C)(C)C(=O)N[C@@H](C)C(=O)NC(C)(C)C(=O)NC(C)(C)C(=O)N[C@@H](CC(C)C)C(=O)N[C@@H](CCC(N)=O)C(=O)NC(C)(C)C(=O)NC(C)(C)C(=O)NC(C)(C)C(=O)N[C@@H](CO)C(=O)N[C@H](C(=O)NC(C)(C)C(=O)N1CCC[C@H]1C(=O)N[C@H](C(=O)NC(C)(C)C(=O)NC(C)(C)C(=O)N[C@@H](CCC(N)=O)C(=O)N[C@@H](CCC(N)=O)C(=O)N[C@H](CO)CC(C)C)C(C)C)C(C)C (Ac-[Aib]A[Aib][Aib]LQ[Aib][Aib][Aib]SV[Aib]PV[Aib][Aib]QQ[Leu(ol)]) | inactive | inactive | inactive
13 | 12.4 | 3.3 | 2.5 | 4.4 | 13 | CC(=O)NC(C)(C)C(=O)N[C@@H](CO)C(=O)NC(C)(C)C(=O)NC(C)(C)C(=O)N[C@@H](CC(C)C)C(=O)N[C@@H](CCC(N)=O)C(=O)NC(C)(C)C(=O)NC(C)(C)C(=O)NC(C)(C)C(=O)N[C@@H](CO)C(=O)N[C@@H](CC(C)C)C(=O)NC(C)(C)C(=O)N1CCC[C@H]1C(=O)N[C@H](C(=O)NC(C)(C)C(=O)NC(C)(C)C(=O)N[C@@H](CCC(N)=O)C(=O)N[C@@H](CCC(N)=O)C(=O)N[C@H](CO)CC(C)C)C(C)C (Ac-[Aib]S[Aib][Aib]LQ[Aib][Aib][Aib]SL[Aib]PV[Aib][Aib]QQ[Leu(ol)]) | inactive | inactive | inactive
14 | 41.1 | 30.9 | 80.2 | 32.8 | 131 | CC(=O)NC(C)(C)C(=O)N[C@@H](CO)C(=O)NC(C)(C)C(=O)NC(C)(C)C(=O)N[C@@H](CC(C)C)C(=O)N[C@@H](CCC(N)=O)C(=O)NC(C)(C)C(=O)NC(C)(C)C(=O)NC(C)(C)C(=O)N[C@@H](CO)C(=O)N[C@H](C(=O)NC(C)(C)C(=O)N1CCC[C@H]1C(=O)N[C@H](C(=O)NC(C)(C)C(=O)NC(C)(C)C(=O)N[C@@H](CCC(N)=O)C(=O)N[C@@H](CCC(N)=O)C(=O)N[C@H](CO)CC(C)C)C(C)C)C(C)C (Ac-[Aib]S[Aib][Aib]LQ[Aib][Aib][Aib]SV[Aib]PV[Aib][Aib]QQ[Leu(ol)]) | inactive | inactive | inactive

— ChEMBL document CHEMBL5584297, “Cytotoxic Peptaibols from Trichoderma strigosum” (J Nat Prod, 2024)
